The values below come from patent US20230047816A1 (priority 2018, published 2023).

For data set [1] the following is noted: all treated patients; cited from earlier work.
For data set [2], the system named is HUVECs. Description: Cell viability of HUVECs in normoxia and hypoxia. To be noted: both normoxia and hypoxia conditions; FIG. 1. Type of data set: cell-based.
The next data set concerns 4T1-M3-Luc breast tumor. As to the kind of experiment: Orthotopic 4T1-M3-Luc syngeneic breast tumor model. Type of data set: in vivo, female BALB/c mice. On the procedure: The aim of this study was to evaluate the antitumor and anti-metastatic efficacy of GO-672 (4-({4-carboxy-2′,4′-dichloro-[1,1′-biphenyl]-3-yl}carbamoyl)-6-hydroxybenzene-1,3-dicarboxylic acid) (30 mg/kg twice daily, i.p.) in an orthotopic 4T1-M3-Luc syngeneic breast tumor model in female BALB/c mice in vivo.
Level of metastasis was evaluated in lymph nodes, lung, spine and ileum by ex vivo luciferase bioluminescence measurements (FIG. 10D).

The next data set has as its system RENCA renal tumor. Description: Orthotopic RENCA syngeneic renal tumor model. Type of data set: in vivo, female BALB/c mice. The conditions noted are these: 30 mg/kg twice daily, i.p. On the procedure:
The aim of this study was to evaluate the antitumor efficacy of GO-672 (4-({4-carboxy-2′,4′-dichloro-[1,1′-biphenyl]-3-yl}carbamoyl)-6-hydroxybenzene-1,3-dicarboxylic acid) (30 mg/kg twice daily, i.p.) in an orthotopic RENCA syngeneic renal tumor model in female BALB/c mice in vivo.

In data set [3] the test system is HUVECs. Description: HUVEC cell viability (Cyquant NF cell proliferation assay). Type of data set: cell-based, human. To be noted: normoxia (20% O2) and hypoxia (1% O2). The procedure: ThermoFisher Cyquant NF cell proliferation assay kit Normoxia conditions: 37° C., 5% CO2, 20% O2 incubator Hypoxia conditions: 37° C., 5% CO2, 1% O2 incubator FIG. 2. Effect of GO-672 on vessel sprouting in vitro. Raw images from the experiment with 3D spheroids of HUVEC after treatment with GO-672 (B) and Sunitinib (A). VEGF-A was used as a stimulation factor. Dose-response plot of GO-672 (C) and Sunitinib (D).

Another data set relates to HUVEC spheroids. Description: VEGF-A induced sprouting, spheroid-based cellular angiogenesis assay. Type of data set: cell-based. The conditions noted are these: Homo sapiens. On the procedure: The effect of PFKFB3 inhibitors on VEGF-A induced sprouting of HUVECs in a spheroid-based cellular angiogenesis assay. Sunitinib was used as a control. The experiments were pursued in modification of the originally published protocol (Korff and Augustin: J Cell Sci 112: 3249-58, 1999). In brief, spheroids were prepared as described (Korff and Augustin: J Cell Biol 143:1341-52, 1998) by pipetting 500 HUVEC in a hanging drop on plastic dishes to allow overnight spheroid aggregation. 50 HUVEC spheroids were then seeded in 0.9 ml of a collagen gel and pipetted into individual wells of a 24 well plate to allow polymerization. The test compounds in combination with the growth factor VEGF-A at 25 ng/ml final assay concentration) were added after 30 min by pipetting 100 μl of a 10-fold concentrated working solution on top of the polymerized gel. Plates were incubated at 37° C. for 24 hours and fixed by adding 4% Roti-Histofix (Roth, Karlsruhe, Germany). Sprouting intensity of HUVEC spheroids treated with the growth factor and the inhibitors were quantitated by an image analysis system determining the cumulative sprout length per spheroid (CSL) using an inverted microscope and the digital imaging software NIS-Elements BR 3.0 (Nikon). The mean of the cumulative sprout length of 10 randomly selected spheroids was analyzed as an individual data point.

The conditions of data set [4]: cited from earlier work.
For another data set, the system named is BT-549. As to the kind of experiment: Combination with anticancer agents, BT-549. Type of data set: cell-based. To be noted: Homo sapiens, anticancer agent alone. On the procedure:
(§1) All cells can be incubated in the plates overnight at 37° C., 5% 002 incubator with different medium.

Another data set concerns T-47D. Description: Combination with anticancer agents, T-47D. Type of data set: cell-based. To be noted: Homo sapiens, T47D, anticancer agent alone. The procedure: as §1
A further data set has as its system MDA-MB-231. Description: Combination with anticancer agents, MDA-MB-231. Type of data set: cell-based. The conditions noted are these: Homo sapiens, anticancer agent alone. The procedure: as §1
In another data set the test system is Hs-578T. Description: Combination with anticancer agents, Hs-578T. Type of data set: cell-based. The conditions noted are these: Homo sapiens, anticancer agent alone. On the procedure:
as §1

The subject of another data set is MCF-7. As to the kind of experiment: Combination with anticancer agents, MCF-7. Type of data set: cell-based. To be noted: Homo sapiens, MCF7, anticancer agent alone. On the procedure:
as §1

The mark [5] stands for this setting: 30 mg/kg twice daily, i.p., day 18.

One may read the EC50 as the concentration at which the effect is half-maximal. Broadly, the IC50 is the concentration that inhibits the measured activity by half.

Take `O=CC[C@@H](O)[C@H](O)[C@H](O)CO` [2-deoxy-D-glucose]: the “adverse effect in clinical trial” value in [1] is listed as “hyperglycemia in all treated patients”.
Take `O=C(O)c1cc(C(=O)O)c(C(=O)Nc2cc(-c3ccc(Cl)cc3Cl)ccc2C(=O)O)cc1O` [Compound 1, 4-({4-carboxy-2′,4′-dichloro-[1,1′-biphenyl]-3-yl}carbamoyl)-6-hydroxybenzene-1,3-dicarboxylic acid]: the “cell viability of HUVECs” value with HUVECs [2] and with HUVECs [3] was “did not reduce cell viability” each time. Further, the “reduction of body weight vs control group” value in the data set on 4T1-M3-Luc breast tumor (30 mg/kg twice daily, i.p.) is on record as “not significant”. Also, the “T/C ratio (tumor volume)” value was determined as 47% with 4T1-M3-Luc breast tumor (30 mg/kg twice daily, i.p., day 4) and 65% with 4T1-M3-Luc breast tumor (30 mg/kg twice daily, i.p., day 7). The “tumor volume after necropsy” value in the data set with 4T1-M3-Luc breast tumor (setting [5]) is listed as “significantly lower”; in the data set with RENCA renal tumor (day 17) it was “significantly decreased”. The “tumor weight after necropsy” value in the data set on 4T1-M3-Luc breast tumor (setting [5]) was “not tumor weight”; in the data set on RENCA renal tumor (day 17), “no statistically significant difference”. Besides, the “level of metastasis (ex vivo luciferase bioluminescence)” value with 4T1-M3-Luc breast tumor (lymph nodes, lung, spine and ileum) is “No statistically significant difference”. Also, the bioluminescence result in the data set with RENCA renal tumor (day 16) is reported as “increase of bioluminescence”. In addition, the Emax at 100 µM in the data set on HUVEC spheroids (HUVEC, at 100 μM, read-out: maximal effect: decrease of vessel sprouting down to) is approximately 25%. In the data set on HUVEC spheroids (HUVEC, at the highest doses, read-out: maximal effect of vessel reduction, % from the initial level), the Emax was in the range of 25 to 50%. Besides, the EC50 with HUVEC spheroids (3D HUVEC model, VEGF-A 25 ng/ml, 24 hours, read-out: EC50 of inhibition of vessel sprouting) was 20 to 40 µM.
Turning to `O=C(O)c1nn(Cc2ccc(Cl)cc2Cl)c2ccccc12` [Lonidamine], in data set [4], the “toxicities in preclinical trials” value was “significant pancreatic and hepatic toxicities”.
With `NC(=O)c1cccc2cn(-c3ccc([C@@H]4CCCNC4)cc3)nc12` [Niraparib], the IC50 is 31 µM in the data set on BT-549; 21 µM with T-47D; 14.6 µM in the data set with MDA-MB-231; 36 µM in the data set on Hs-578T; 14.5 µM in the data set with MCF-7.
